Results on 3 molecules are retold here after patent US9815788B2, “Anti-angiogenic compounds” (University College Dublin National University of Ireland, …, priority 2012, dated 2017).

The structures appear in SMILES notation. Where a name gives a salt, the structure may show the parent alone.

Holding throughout (format): cell-based, human
Assay [1] relates to OE33P radiosensitive oesophageal adenocarcinoma cells. Briefly: Quantification of oxidative phosphorylation (OCR, Seahorse), OE33P. The settings on record: 10 μM, 24 hours. On the procedure:
OE33P radiosensitive and OE33R radio-resistant oesophageal adenocarcinoma cells were used to test the effects of the compounds 11B HCl, 11B CC11 HCl, 11B CC16 HCl, 11B 471 and 11B 268 on oxidative phosphorylation. Cells were maintained in RPMI media supplemented with 10% foetal calf serum, penicillin (100 U/ml) and streptomycin (100 μg/ml). A total of 11,000-13,000 cells, in 100 μl media, were seeded per well in 24 well plates and left to incubate for 24 hours, with an additional 150 μl media added after 5 hours. The media was replaced with solutions containing 10 μM of 11B HCl, 11B CC11 HCl, 11B CC16 HCl, 11B 471, 11B 268 or fresh media as a control. Each drug had 6 replicates. After 24 hours of treatment, media was replaced with modified DMEM supplemented with 0.5 mM glucose. Rates of oxidative phosphorylation were determined using Seahorse Biosciences metabolism technology. The media was disposed and the cells washed with PBS. The cells were fixed with 1% glutaraldehyde for 15 minutes and then stained with crystal violet for 30 minutes. The plates were blotted and dried overnight. The cells were resuspended with 1% TritonX-100 and shaken for 15 minutes. The absorbance was read on a spectrophotometer at 595 nm. Rates of oxidative phosphorylation were then normalised to cell number.
OE33P radiosensitive and OE33R radioresistant oesophageal adenocarcinoma cells were used to test the effects of the compound 11B_Z_HCl on oxidative phosphorylation. Cells were maintained in RPMI media supplemented with 10%0/foetal calf serum, penicillin […]) and streptomycin (100 μg/ml). A total of 11,000 cells, in 100 μl media, were seeded per well in 24 well plates and left to incubate for 24 hours, with an additional 150 μl media added after 5 hours. The media was replaced with solutions containing 10 μM of 11B_Z_HCl or fresh media as a control. Each treatment had 6 replicates. After 24 hours of treatment, media was replaced with modified DMEM supplemented with 0.5 mM glucose. Rates of oxidative phosphorylation were determined using Seahorse Biosciences metabolism technology. Rates of oxidative phosphorylation were then normalised to cell number.

The subject of assay [2] is RAD51L3, MMS19, SMUG1, PARP1 and MLH1 in OE33P cells. Briefly: Gene expression of DNA repair proteins (qPCR), OE33P. The settings on record: 10 μM, 24 hours, reductions of RAD51L3, MMS19, SMUG1 and PARP1. The protocol: O[…] radiosensitive and O[…] radioresistant oesophageal adenocarcinoma cells were used to test the effects of the above compounds on the gene expression of DNA repair proteins. Cells were maintained in RPMI media supplemented with 10% foetal calf serum, penicillin (100 U/ml) and streptomycin (100 μg/ml). Cells were seeded in 6 well plates and left to incubate for 24 hours. Cells were treated 10 μM of the above compounds or fresh media as a control. After 24 hours of treatment, RNA and cDNA was isolated and qPCR performed using primer probes to the following primer probes to RAD51L3, MMS19, SMUG1, PARP1 and MLH1. O[…] radiosensitive and O[…] radioresistant oesophageal adenocarcinoma cells were used to test the effects of compounds 11B HCl, 11B_CC11_HCl and 11B_Z_HCL on the gene expression of DNA repair proteins. Cells were maintained in RPMI media supplemented with 10% foetal calf serum, penicillin (100 U/ml) and streptomycin (100 μg/ml). Cells were seeded in 6 well plates and left to incubate for 24 hours. Cells were treated 10 μM of the above compounds or fresh media as a control. After 24 hours of treatment, RNA and cDNA was isolated and qPCR performed using primer probes to the following primer probes to RAD51L3, MMS19, SMUG1, PARP1 and MLH1.
Background: Real-time PCR tracks product formation cycle by cycle.

Assay [3] relates to OE33P radio-sensitive oesophageal adenocarcinoma cells. The experiment in a line: Quantification of glycolysis (ECAR, Seahorse), OE33P. Particulars: 10 μM, 24 hours. The protocol: (§1) OE33P radio-sensitive and OE33R radio-resistant oesophageal adenocarcinoma cells were used to test the effects of compounds 11B HCl, 11B CC11 HCl, 11B CC16 HCl, 11B 471 and 11B 268 on glycolysis. Cells were maintained in RPMI media supplemented with 10% foetal calf serum, penicillin (100 U/ml) and streptomycin (100 μg/ml). A total of 11,000 or 13,000 cells, in 100 μl media, were seeded per well in 24 well plates and left to incubate for 24 hours, with an additional 150 μl media added after 5 hours. The media was replaced with solutions containing 10 μM of 11B HCl, 11B CC1 HCl, 11B CC16 HCl, 11B 471, 11B 268 or fresh media as a control. Each drug had 6 replicates. After 24 hours of treatment, media was replaced with modified DMEM supplemented with 0.5 mM glucose. Rates of glycolysis were determined using Seahorse Biosciences metabolism technology. The media was disposed and the cells washed with PBS. The cells were fixed with 1% glutaraldehyde for 15 minutes and then stained with crystal violet for 30 minutes. The plates were blotted and dried overnight. The cells were resuspended with 1% TritonX-100 and shaken for 15 minutes. The absorbance was read on a spectrophotometer at 590 nm. Rates of glycolysis were then normalised to cell number.
as §1, with “radiosensitive” for “radio-sensitive and OE33R radio-resistant”, “the compound 11B_ZHCl” for “compounds 11B HCl, 11B CC11 HCl, 11B CC16 HCl, 11B 471 and 11B 268”, “11,000” for “11,000 or 13,000”, “11B_ZHCl” for “11B HCl, 11B CC1 HCl, 11B CC16 HCl, 11B 471, 11B 268”, “treatment” for “drug”, “number. No changes in ECAR were detected in OE33R treated cells.” for “number.”

Regarding `C/C(=C\c1ccccc1O)c1ccc2ccccc2n1.Cl` [Compound 11B_CC11_HCl, (E)-2-(2-Quinolin-2-yl-propenyl)-phenol HCl salt], in assay [1], the “oxygen consumption rate (OCR), a measure of oxidative phosphorylation” value (shortened to “oxygen consumption rate (OCR), a measure”) is recorded as “significantly reduce”. Moreover, the “expression of DNA repair genes” value in assay [2] was “Reduction”. The “extracellular acidification rate (ECAR), a measure of glycolysis” value (“extracellular acidification rate (ECAR)” below) in assay [3] is on record as “significantly reduce”.

As for `Cl.Oc1ccccc1/C=C\c1ccc2ccccc2n1` [Compound 11B_Z_HCl, (Z)-2-(2-(Quinolin-2-yl)vinyl) phenol HCl salt], the “oxygen consumption rate (OCR), a measure” value in assay [1] (HCl salt) is “Significantly Reduces”. The “expression of DNA repair genes” value in assay [2] is recorded as “Reduction”. Besides, the “extracellular acidification rate (ECAR)” value in assay [3] (HCl salt) was “significantly reduces”; in assay [3] (listed as 11B_ZHCl, HCl salt), “Significantly Reduces”.

Consider `Oc1ccccc1/C=C/c1ccc2ccccc2n1` [11B HCl], for which, in assay [1], the “oxygen consumption rate (OCR), a measure” value was “significantly reduce”. In assay [2], the “expression of DNA repair genes” value was “Reduction”. Besides, in assay [3], the “extracellular acidification rate (ECAR)” value is reported as “significantly reduce”.
